The target of experiment [1] is T1, indoleamine 2,3-dioxygenase (IDO) (Homo sapiens, UniProt P14902).
T1 construct: endogenous in cells; host or cells: HeLa (ATCC CCL-2), induced with IFNγ at 25 ng/mL
Briefly: HeLa cell-based indoleamine 2,3-dioxygenase (IDO) assay, kynurenine production. To be noted: HeLa cells, IFNγ 25 ng/mL, 48 hour incubation, kynurenine absorbance at 480 nm. The method, then: Assessment of Inhibitor Activity in HeLa Cell-Based Indoleamine 2,3-dioxygenase (IDO) Assay:
HeLa (ATCC® CCL-2) cells were obtained from the ATCC® and cultured in Dulbecco's Modified Eagle Medium supplemented with 4.5 g/L glucose, […] (#10-013-CV, Corning), 2 mM L-alanyl-L-glutamine dipeptide (#35050-061, Gibco), 100U/mL penicillin, 100 μg/mL streptomycin (#SV30010, HyClone) and 10% fetal bovine serum (#SH30071.03 HyClone). Cells were maintained in a humidified incubator at 37° C. in 5% CO2.
IDO activity was assessed as a function of kynurenine production as follows: HeLa cells were seeded in a 96-well culture plate at a density of 5,000 cells/well and allowed to equilibrate overnight. After 24 hours, the media was aspirated and replaced with media containing IFNγ (#285-IF/CF, R&D Systems) at a final concentration of 25 ng/mL. A serial dilution of each test compound was added to the cells in a total volume of 200 μL of culture medium. After a further 48 hour incubation, 170 μL of supernatant was transferred from each well to a fresh 96-well plate. 12.1 μL of 6.1N trichloroacetic acid (#T0699, Sigma-Aldrich) was added to each well and mixed, followed by incubation at 65° C. for 20 minutes to hydrolyze N-formylkynurenine, the product of indoleamine 2,3-dioxygenase, to kynurenine. The reaction mixture was then centrifuged for 10 mins at 500×g to sediment the precipitate. 100 μL of the supernatant was transferred from each well to a fresh 96-well plate. 100 μl of 2% (w/v) p-dimethylaminobenzaldehyde (#15647-7, Sigma-Aldrich) in acetic acid (#A6283, Sigma-Aldrich) was added to each well mixed and incubated at room temperature for 20 inns. Kynurenine concentrations were determined by measuring absorbance at 480 nm and calibrating against an L-kynurenine (#K8625, Sigma-Aldrich) standard curve using a SPECTRAMAX® M2e microplate reader (Molecular Devices). The percentage activity at each inhibitor concentration was determined and IC50 values assessed using nonlinear regression.

The next experiment deals with T2, human IDO1 (Homo sapiens, UniProt P14902).
T2 construct: expressed in transfected cells
T2 sequence (P14902 whole entry): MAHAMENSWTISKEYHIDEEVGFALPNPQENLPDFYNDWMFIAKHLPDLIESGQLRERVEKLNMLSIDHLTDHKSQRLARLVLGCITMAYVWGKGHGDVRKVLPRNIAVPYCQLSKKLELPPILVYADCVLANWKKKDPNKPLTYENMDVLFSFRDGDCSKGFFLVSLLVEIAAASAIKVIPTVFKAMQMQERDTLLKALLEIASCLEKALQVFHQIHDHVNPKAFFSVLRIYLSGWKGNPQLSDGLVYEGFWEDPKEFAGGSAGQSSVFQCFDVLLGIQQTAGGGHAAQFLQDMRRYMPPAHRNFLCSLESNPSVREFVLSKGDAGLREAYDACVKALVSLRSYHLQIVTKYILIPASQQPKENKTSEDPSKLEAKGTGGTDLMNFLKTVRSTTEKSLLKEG
Briefly: human IDO1/HEK293 cell IDO inhibition assay. The note with it: HEK293 cells stably expressing human IDO1, 20 hours incubation, absorbance at 490 nm; read-out: IDO1 HEK Human IC50. The format is cell-based. The method, then:
HEK293 cells were transfected with a pCDNA-based mammalian expression vector harboring human IDO1 cDNA (NM 002164.2) by electroporation. They were cultured in medium (DMEM with 10% FBS) containing 1 mg/ml G418 for two weeks. Clones of HEK293 cells that stably expressed human IDO1 protein were selected and expanded for IDO inhibition assay.
The human IDO1/HEK293 cells were seeded at 10,000 cells per 50 μL per well with RPMI/phenol red free media contains 10% FBS in a 384-well black wall clear bottom tissue culture plate (Matrix Technologies LLC) 100 nL of certain concentration of compound was then added to each well using ECHO liquid handling systems. The cells were incubated for 20 hours in 37° C. incubator with 5% CO2.
The compound treatments were stopped by adding trichloroacetic acid (Sigma-Aldrich) to a final concentration at 0.2%. The cell plate was further incubated at 50° C. for 30 minute. The equal volume supernatant (20 μL) and 0.2% (w/v) Ehrlich reagent (4-dimethylaminobenzaldehyde, Sigma-Aldrich) in glacial acetic acid were mixed in a new clear bottom 384-well plate. This plate was then incubated at room temperature for 30 minute. The absorbance at 490 nm was measured on Envision plate reader.
Compound IC50 values were calculated using the counts of 500 nM of a reference standard treatment as one hundred percent inhibition, and counts of no compound but DMSO treatment as zero percent inhibition.

Results on 24 molecules are retold here after US11203592B2, “Inhibitors of indoleamine 2,3-dioxygenase and methods of their use” (BRISTOL-MYERS SQUIBB COMPANY, priority 2017, dated 2021).

Molecules are shown by their SMILES. Structures can show the parent of a compound that is named as a salt.

T1 sequence (P14902 whole entry): as above

One may read the IC50 as the concentration that inhibits the measured activity by half. `CC(C(=O)Nc1ccc(Cl)cc1)[C@H]1CC[C@@]2(CC1)OCc1ccccc12` (mixture of isomers) [Example 4, rac-N-(4-Chlorophenyl)-2-((1r,4r)-3′H-spiro[cyclohexane-1,1′-isobenzofuran]-4-yl)propanamide] had an IC50 in experiment [1] of 50 nM.
Regarding `CC(C(=O)Nc1ccc(Cl)cc1)[C@H]1CC[C@]2(CC1)OCc1ccccc12` (mixture of isomers) [Example 5, N-(4-Chlorophenyl)-2-((1s,4s)-3′H-spiro[cyclohexane-1,1′-isobenzofuran]-4-yl)propanamide], the IC50 in experiment [1] was 92 nM.
In the case of `CC(C(=O)NC12CC3CC(CC(C3)C1)C2)[C@H]1CC[C@]2(CC1)OCc1ccccc12` (mixture of isomers) [Example 6, rac-N-((1R,3S)-Adamantan-1-yl)-2-((1S,4s)-3′H-spiro[cyclohexane-1,1′-isobenzofuran]-4-yl)propanamide], the IC50 in experiment [1] stood at 1300 nM.
Turning to `Cc1cccc2c1[C@]1(CC[C@@H](C(C)C(=O)Nc3ccc(Cl)cc3)CC1)OC2` (mixture of isomers) [Example 7, rac-N-(4-Chlorophenyl)-2-((1r,4r)-7′-methyl-3′H-spiro[cyclohexane-1,1′-isobenzofuran]-4-yl)propanamide], the half-maximal inhibitory concentration (IC50) on human IDO1 was 37 nM.
For `Cc1cccc2c1[C@]1(CC[C@H](C(C)C(=O)Nc3ccc(Cl)cc3)CC1)OC2` (mixture of isomers) [Example 8, rac-N-(4-chlorophenyl)-2-((1s,4s)-7′-methyl-3′H-spiro[cyclohexane-1,1′-isobenzofuran]-4-yl)propanamide], at human IDO1, the IC50 came to 24 nM.
Same read-out and setting: as for `Cc1cccc2c1[C@]1(CC[C@H](C(C)C(=O)NC34CC5CC(CC(C5)C3)C4)CC1)OC2` (mixture of isomers) [Example 9, rac-N-((1R,3S)-adamantan-1-yl)-2-((1S,4s)-7′-methyl-3′H-spiro[cyclohexane-1,1′-isobenzofuran]-4-yl)propanamide], the figure is 617 nM; as for `Cc1cccc2c1[C@]1(CC[C@H](C(C)C(=O)NC3(C)CCCCC3)CC1)OC2` (mixture of isomers) [Example 10, rac-2-((1s,4s)-7′-methyl-3′H-spiro[cyclohexane-1,1′-isobenzofuran]-4-yl)-N-(1-methylcyclohexyl)propanamide], 980 nM.
As for `CC(NC(=O)c1ccc(Cl)cc1)[C@H]1CC[C@]2(CC1)OCc1ccccc12` (mixture of isomers) [Example 11, rac-N-(1-((1s,4s)-3′H-spiro[cyclohexane-1,1′-isobenzofuran]-4-yl)ethyl)-4-chlorobenzamide], it took 45 nM to reach half-maximal inhibition in experiment [1] (IC50).
The same measure, in the same setting: as for `CC(NC(=O)C12CC3CC(CC(C3)C1)C2)[C@H]1CC[C@]2(CC1)OCc1ccccc12` (mixture of isomers) [Example 12, rac-(1R,3S)—N-(1-((1S,4s)-3′H-spiro[cyclohexane-1,1′-isobenzofuran]-4-yl)ethyl)adamantane-1-carboxamide], the figure is 1440 nM.
For `CC(C(=O)Nc1ccc(Cl)cc1)[C@H]1CC[C@@]2(CC1)COc1ccccc12` (mixture of isomers) [Example 14, rac-N-(4-Chlorophenyl)-2-((1′r,4′r)-2H-spiro[benzofuran-3,1′-cyclohexan]-4′-yl)propanamide], the IC50 at human IDO1 was 5 nM.
In the case of `CC(NC(=O)c1ccc(Cl)cc1)[C@H]1CC[C@@]2(CC1)COc1ccccc12` (mixture of isomers) [Example 17, rac-N-(1-((1′r,4′r)-2H-Spiro[benzofuran-3,1′-cyclohexan]-4′-yl)ethyl)-4-chlorobenzamide], the IC50 at human IDO1 was found to be 59 nM.
`CC(C(=O)Nc1ccc(Cl)cc1)[C@H]1CC[C@]2(CC1)COc1ccccc12` (mixture of isomers) [Example 20, rac-N-(4-Chlorophenyl)-2-((1′s,4′s)-2H-spiro[benzofuran-3,1′-cyclohexan]-4′-yl)propanamide]: the concentration for half-maximal inhibition (IC50) on human IDO1 was determined as 61 nM.
Same read-out and setting: the result for `CC(NC(=O)c1ccc(Cl)cc1)[C@H]1CC[C@]2(CC1)COc1ccccc12` (mixture of isomers) [Example 21, rac-N-(1-((1′s,4′s)-2H-Spiro[benzofuran-3,1′-cyclohexan]-4′-yl)ethyl)-4-chlorobenzamide] reads 59 nM; that for `CC(c1nc2ncc(Cl)cc2[nH]1)[C@H]1CC[C@@]2(CC1)COc1ccccc12` (mixture of isomers) [Example 24, rac-2-(1-((1′r,4′r)-2H-Spiro[benzofuran-3,1′-cyclohexan]-4′-yl)ethyl)-6-chloro-1H-imidazo[4,5-b]pyridine TFA Salt], 117 nM.
On to `CC(NC(=O)c1ccc(C#N)cc1)[C@H]1CC[C@]2(CC1)COc1ccccc12` (mixture of isomers) [Example 27, rac-N-(1-((1′s,4′s)-2H-Spiro[benzofuran-3,1′-cyclohexan]-4′-yl)ethyl)-4-cyanobenzamide], for which, on human IDO1, the IC50 is 93 nM.
The same measure, in the same setting: the result for `Cc1cccc2c1OC(CO)[C@]21CC[C@H](CC(=O)Nc2ccc(Cl)cc2)CC1` (mixture of isomers) [Example 29, rac-N-(4-Chlorophenyl)-2-((1′r,2R,4′R)-2-(hydroxymethyl)-7-methyl-2H-spiro[benzofuran-3,1′-cyclohexan]-4′-yl)acetamide] reads 68 nM; that for `Cc1cccc2c1OC(CO)[C@]21CC[C@@H](CC(=O)Nc2ccc(Cl)cc2)CC1` (mixture of isomers) [Example 30, rac-N-(4-Chlorophenyl)-2-((1′s,2R,4′S)-2-(hydroxymethyl)-7-methyl-2H-spiro[benzofuran-3,1′-cyclohexan]-4′-yl)acetamide], 363 nM.
Take `C[C@@H](C(=O)Nc1ccc(Cl)cc1)[C@H]1CC[C@@]2(CC1)COc1ccccc12` [Example 16, (R)—N-(4-Chlorophenyl)-2-((1′R,4′r)-2H-spiro[benzofuran-3,1′-cyclohexan]-4′-yl)propanamide]: on human IDO1, the IC50 came to 8 nM.
The same measure, in the same setting: as for `C[C@@H](NC(=O)c1ccc(Cl)cc1)[C@H]1CC[C@@]2(CC1)COc1ccccc12` [Example 18, N—((R)-1-((1′R,4′r)-2H-Spiro[benzofuran-3,1′-cyclohexan]-4′-yl)ethyl)-4-chlorobenzamide], the figure is 9 nM; as for `C[C@H](NC(=O)c1ccc(Cl)cc1)[C@H]1CC[C@@]2(CC1)COc1ccccc12` [Example 19, N—((S)-1-((1'S,4′r)-2H-Spiro[benzofuran-3,1′-cyclohexan]-4′-yl)ethyl)-4-chlorobenzamide], 914 nM.
The same measure, in the same setting: the result for `C[C@@H](c1nc2ccc(Cl)cc2[nH]1)[C@H]1CC[C@@]2(CC1)COc1ccccc12` [Example 22, 2-((R)-1-((3R,4′r)-2H-spiro[benzofuran-3,1′-cyclohexan]-4′-yl)ethyl)-6-chloro-1H-benzo[d]imidazole] reads 142 nM; that for `C[C@H](c1nc2ccc(Cl)cc2[nH]1)[C@H]1CC[C@@]2(CC1)COc1ccccc12` [Example 23, 2-((S)-1-((3S,4′r)-2H-spiro[benzofuran-3,1′-cyclohexan]-4′-yl)ethyl)-6-chloro-1H-benzo[d]imidazole], 254 nM.
Still for that read-out and setting: as for `C[C@@H](c1nc2ncc(Cl)cc2[nH]1)[C@H]1CC[C@@]2(CC1)COc1ccccc12` [Example 25, 2-((R)-1-((3R,4′r)-2H-spiro[benzofuran-3,1′-cyclohexan]-4′-yl)ethyl)-6-chloro-1H-imidazo[4,5-b]pyridine], the figure is 794 nM; as for `C[C@H](c1nc2ncc(Cl)cc2[nH]1)[C@H]1CC[C@@]2(CC1)COc1ccccc12` [Example 26, 2-((S)-1-((3S,4′r)-2H-spiro[benzofuran-3,1′-cyclohexan]-4′-yl)ethyl)-6-chloro-1H-imidazo[4,5-b]pyridine], 43 nM.
